Key:
rat osteoblastic cells [1] = experiment: Alkaline phosphatase (ALP) stain of osteoblastic culture (Example 1); format: cell-based; settings: NAC added into osteoblastic culture, day 7; dose-dependent up to 5 mM; p<0.001 vs without NAC
Method: Bone marrow cells isolated from the femur of 8-week-old male Sprague-Dawley rats were placed into alpha-modified Eagle's medium supplemented with 15% fetal bovine serum, 50 µg/ml ascorbic acid, 10^−8M dexamethasone, 10 mM Na-β-glycerophosphate and Antibiotic-antimycotic solution containing 10,000 units/ml Penicillin G sodium, 10,000 mg/ml Streptomycin sulfate and 25 mg/ml Amphotericin B. Cells were incubated in a humidified atmosphere of 95% air, 5% CO2 at 37° C. At 80% confluency, the cells were detached using 0.25% Trypsin-1 mM EDTA-4Na and seeded either the polystyrene dish with or without NAC addition, bone substitute material (demineralized bone matrix, Orthoblast, IsoTis OrthoBiologics, Inc. Irvine, Calif.), collagen gel (PureCol, Inamed, Fremont, Calif.) or bone cement (Endurance MV, DePuy Orthopaedics, Warsaw, Ind.) with or without NAC incorporation at a density of 4×10^4 cells/cm^2. The culture medium was renewed every three days. The NAC incorporated bone graft substitute and collagen membrane materials were prepared by soaking each of the materials in NAC for 24 hours. The NAC-incorporated collagen gel was prepared by mixing the collagen gel and NAC. […] The stained images were analyzed for ALP positive area defined as [(stained area/total dish area)×100)] […] Three independent cultures were evaluated in each the experimental groups.

osteoblastic culture = experiment: Gene expression analysis of bone-related genes by RT-PCR (Example 1); format: cell-based, rat; settings: relative to GAPDH
Method: Bone marrow cells isolated from the femur of 8-week-old male Sprague-Dawley rats were placed into alpha-modified Eagle's medium supplemented with 15% fetal bovine serum, 50 µg/ml ascorbic acid, 10^−8M dexamethasone, 10 mM Na-β-glycerophosphate and Antibiotic-antimycotic solution containing 10,000 units/ml Penicillin G sodium, 10,000 mg/ml Streptomycin sulfate and 25 mg/ml Amphotericin B. Cells were incubated in a humidified atmosphere of 95% air, 5% CO2 at 37° C. At 80% confluency, the cells were detached using 0.25% Trypsin-1 mM EDTA-4Na and seeded either the polystyrene dish with or without NAC addition, bone substitute material (demineralized bone matrix, Orthoblast, IsoTis OrthoBiologics, Inc. Irvine, Calif.), collagen gel (PureCol, Inamed, Fremont, Calif.) or bone cement (Endurance MV, DePuy Orthopaedics, Warsaw, Ind.) with or without NAC incorporation at a density of 4×10^4 cells/cm^2. The culture medium was renewed every three days. The NAC incorporated bone graft substitute and collagen membrane materials were prepared by soaking each of the materials in NAC for 24 hours. The NAC-incorporated collagen gel was prepared by mixing the collagen gel and NAC. The expression of bone-related genes was analyzed using the reverse transcription-polymerase chain reaction (RT-PCR). Total RNA in the cultures was extracted using TRIzol (Invitrogen, Carlsbad, Calif.) and purification column (RNeasy, Qiagen, Valencia, Calif.). Following DNAse I treatment, reverse transcription of 0.5 μg of total RNA was performed using MMLV reverse transcriptase (Clontech, Carlsbad, Calif.) in the presence of oligo(dT) primer (Clontech, Carlsbad, Calif.). The PCR reaction was performed using Taq DNA polymerase (EX Taq, Takara Bio, Madison, Wis.) to detect alpha-I type I collagen (collagen I), osteopontin, and osteocalcin mRNA. The primer sequences and PCR conditions are described previously. Resulting products were visualized on 1.5% agarose gel with ethidium bromide staining. The intensity of bands was quantified under UV light, and the values were normalized with reference to GAPDH mRNA.

rat osteoblastic cells [2] = experiment: Mineralization assays, Von Kossa and Alizarin Red stain (Example 1); format: cell-based; settings: NAC added into culture medium, day 14; dose-dependent; p<0.001
Method: Bone marrow cells isolated from the femur of 8-week-old male Sprague-Dawley rats were placed into alpha-modified Eagle's medium supplemented with 15% fetal bovine serum, 50 µg/ml ascorbic acid, 10^−8M dexamethasone, 10 mM Na-β-glycerophosphate and Antibiotic-antimycotic solution containing 10,000 units/ml Penicillin G sodium, 10,000 mg/ml Streptomycin sulfate and 25 mg/ml Amphotericin B. Cells were incubated in a humidified atmosphere of 95% air, 5% CO2 at 37° C. At 80% confluency, the cells were detached using 0.25% Trypsin-1 mM EDTA-4Na and seeded either the polystyrene dish with or without NAC addition, bone substitute material (demineralized bone matrix, Orthoblast, IsoTis OrthoBiologics, Inc. Irvine, Calif.), collagen gel (PureCol, Inamed, Fremont, Calif.) or bone cement (Endurance MV, DePuy Orthopaedics, Warsaw, Ind.) with or without NAC incorporation at a density of 4×10^4 cells/cm^2. The culture medium was renewed every three days. The NAC incorporated bone graft substitute and collagen membrane materials were prepared by soaking each of the materials in NAC for 24 hours. The NAC-incorporated collagen gel was prepared by mixing the collagen gel and NAC. […] (%) was measured using a digitized image analysis system (Image Pro-plus, Media Cybernetics, MD). Three independent cultures were evaluated in each of the experimental groups.

## CC(=O)N[C@@H](CS)C(=O)O [NAC, N-acetyl cysteine]
Rat osteoblastic cells [1]
  alkaline phosphatase activity (ALP positive area): increased
Osteoblastic culture; NAC addition to the culture
  gene expression level of Bmp2: significantly elevated
  gene expression level of Runx2/cbfa1: significantly elevated
Osteoblastic culture; culture with NAC, early stage of day 3
  osteocalcin expression: upregulated
Osteoblastic culture; culture with NAC, up to day 14
  expression of collagen I: upregulated
  expression of osteopontin: upregulated
Rat osteoblastic cells [2]
  Von Kossa positive area (mineralizing capability): significantly increased

Source: patent publication US8101198B2, “Osteogenic enhancer composition” (The Regents of the University of California, priority 2007, dated 2012)
